Results taken from patent publication US20250188040A1, “PHARMACEUTICAL COMPOSITIONS COMPRISING WRN HELICASE INHIBITORS” (Vividion Therapeutics, Inc., priority 2022, published 2025).
Like-named read-outs stand apart in the source and are kept apart here.

Key:
[1] = target: hWRN(519-1227)_C-H3CV-GFP-10His (Homo sapiens, UniProt Q14191); experiment: Helicase Assay for WRN Inhibition (ATP-dependent, fluorescence based)
Protocol: Effects of compounds on WRN helicase activity were assessed with the Helicase Assay for WRN Inhibition. This is an ATP-dependent (inclusion of ATP is important and is required for this assay) fluorescence based assay using recombinant WRN and a fluorogenic DNA substrate.
WRN activity was normalized to signal from wells without WRN protein (background, 0% activity) and wells with protein treated only with DMSO (positive control, 10000 activity). For each compound the potency of inhibition (IC50) was determiined using Graphpad Prism.

WRN C727 [2] = target: T1, WRN C727 (Homo sapiens, UniProt Q14191); experiment: Target engagement, in situ (cell), OCI-AML2; assay type: cell-based; conditions: OCI-AML2 cells, read-out: OCI-AML2 WRN C727 TE50 in situ (cell)
T1 construct: endogenous in cells; host or cells: OCI-AML2
Protocol: Cells or cell lysates were treated with a dose response of compound followed by probe treatment, which labels solvent exposed cysteines. Proteins were enzymatically digested with trypsin and probe-labelled peptides were enriched with streptavidin. Isolated peptides were then separated using reversed-phase liquid chromatography on a C18 column (Dionex Ultimated 3000 nano-LC, Thermo). Peptides were analyzed by parallel reaction monitoring mass spectrometry (Exploris 120, Thermo).
Target engagement (%) is calculated relative to DMSO treated control samples.

WRN C727 [3] = target: T1, WRN C727; experiment: Target engagement, in vitro (lysate), OCI-AML2; assay type: binding; conditions: read-out: OCI-AML2 WRN C727 TE50 in vitro (lysate)
How it was run: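 Percent engagement of WRN C727 is expressed against DMSO-treated samples, measured by PRM mass spectrometry of streptavidin-enriched, probe-tagged tryptic peptides. Compound dose responses preceded probe labelling of solvent-exposed cysteines, in either living OCI-AML2 cells or their lysates.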

HCT 116 cells = experiment: Cell growth assay (CellTiter-Glo 2.0), HCT 116 MSI-H cell line; conditions: Homo sapiens, HCT-116, 120 h, read-out: Cell Growth Inhibition GI50 HCT-116
Protocol: The effects of compound on cellular viability were determined using the CellTiter-Glo® 2.0 Luminescent Cell Viability Assay (Promega, Madison, WI).
SW480 cells were seeded at 1,000 cells per well in Eagle's Minimum Essential Medium (EMEM) with 10% FBS. Both cell lines were seeded in a volume of 50 μL medium per well. […] The concentration range was adjusted as needed for compounds of different potencies. The cells treated with compounds were incubated for 5 days at 37° C. in 5% CO2. […] The plate was then read on a Clariostar plate reader (BMG Labtech, Cary, NC) in luminescence mode. The previously measured baseline cell viability was subtracted from the luminescence value of each well, and cell viability (% of DMSO) was plotted as a function of log compound concentration. The EC50 was then calculated for each compound using Dotmatics Software (San Diego, CA).

SW480 cells = experiment: Cell growth assay (CellTiter-Glo 2.0), SW480 MSS cell line; conditions: Homo sapiens, SW480, 120 h, read-out: Cell Growth Inhibition GI50 SW480
[4] = WRN Helicase IC50, 30 min preincubation with ATP, 30 min reaction

T1 sequence (Q14191 whole entry): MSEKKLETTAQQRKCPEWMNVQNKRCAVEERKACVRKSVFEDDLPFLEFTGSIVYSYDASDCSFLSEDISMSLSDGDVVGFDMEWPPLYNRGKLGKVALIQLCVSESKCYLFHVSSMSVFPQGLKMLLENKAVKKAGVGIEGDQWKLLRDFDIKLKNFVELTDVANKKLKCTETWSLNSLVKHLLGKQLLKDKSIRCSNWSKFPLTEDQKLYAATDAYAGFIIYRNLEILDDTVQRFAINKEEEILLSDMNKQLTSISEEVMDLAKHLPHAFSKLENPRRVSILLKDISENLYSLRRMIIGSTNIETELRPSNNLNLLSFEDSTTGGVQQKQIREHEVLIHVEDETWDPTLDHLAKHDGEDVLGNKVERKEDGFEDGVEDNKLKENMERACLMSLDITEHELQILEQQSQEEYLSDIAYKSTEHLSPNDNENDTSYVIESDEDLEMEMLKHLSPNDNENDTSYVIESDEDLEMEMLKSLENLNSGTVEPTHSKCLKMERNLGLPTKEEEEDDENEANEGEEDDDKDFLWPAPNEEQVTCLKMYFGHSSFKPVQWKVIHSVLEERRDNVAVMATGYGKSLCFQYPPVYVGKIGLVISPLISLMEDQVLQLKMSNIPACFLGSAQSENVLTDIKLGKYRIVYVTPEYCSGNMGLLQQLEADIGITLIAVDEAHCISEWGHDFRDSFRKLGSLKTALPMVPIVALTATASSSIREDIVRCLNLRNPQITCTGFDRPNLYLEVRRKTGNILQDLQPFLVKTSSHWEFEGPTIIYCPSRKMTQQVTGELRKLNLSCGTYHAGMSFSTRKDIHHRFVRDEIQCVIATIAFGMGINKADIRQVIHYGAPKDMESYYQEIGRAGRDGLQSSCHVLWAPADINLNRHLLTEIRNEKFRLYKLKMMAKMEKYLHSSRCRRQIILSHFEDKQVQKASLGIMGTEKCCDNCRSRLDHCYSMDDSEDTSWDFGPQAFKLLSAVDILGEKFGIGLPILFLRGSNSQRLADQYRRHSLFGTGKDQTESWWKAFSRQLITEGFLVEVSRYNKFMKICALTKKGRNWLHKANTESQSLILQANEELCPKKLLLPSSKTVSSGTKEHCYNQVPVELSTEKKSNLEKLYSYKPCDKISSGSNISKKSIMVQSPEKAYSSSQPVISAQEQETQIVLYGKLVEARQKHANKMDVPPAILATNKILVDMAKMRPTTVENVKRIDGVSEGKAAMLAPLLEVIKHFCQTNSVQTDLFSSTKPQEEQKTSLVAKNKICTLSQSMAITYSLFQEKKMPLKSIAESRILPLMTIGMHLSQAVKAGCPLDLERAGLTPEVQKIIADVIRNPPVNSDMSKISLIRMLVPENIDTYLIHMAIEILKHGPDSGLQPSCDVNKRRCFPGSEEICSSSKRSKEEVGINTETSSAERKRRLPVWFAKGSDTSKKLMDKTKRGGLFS
Sequence of hWRN(519-1227)_C-H3CV-GFP-10His (Q14191 519-1227): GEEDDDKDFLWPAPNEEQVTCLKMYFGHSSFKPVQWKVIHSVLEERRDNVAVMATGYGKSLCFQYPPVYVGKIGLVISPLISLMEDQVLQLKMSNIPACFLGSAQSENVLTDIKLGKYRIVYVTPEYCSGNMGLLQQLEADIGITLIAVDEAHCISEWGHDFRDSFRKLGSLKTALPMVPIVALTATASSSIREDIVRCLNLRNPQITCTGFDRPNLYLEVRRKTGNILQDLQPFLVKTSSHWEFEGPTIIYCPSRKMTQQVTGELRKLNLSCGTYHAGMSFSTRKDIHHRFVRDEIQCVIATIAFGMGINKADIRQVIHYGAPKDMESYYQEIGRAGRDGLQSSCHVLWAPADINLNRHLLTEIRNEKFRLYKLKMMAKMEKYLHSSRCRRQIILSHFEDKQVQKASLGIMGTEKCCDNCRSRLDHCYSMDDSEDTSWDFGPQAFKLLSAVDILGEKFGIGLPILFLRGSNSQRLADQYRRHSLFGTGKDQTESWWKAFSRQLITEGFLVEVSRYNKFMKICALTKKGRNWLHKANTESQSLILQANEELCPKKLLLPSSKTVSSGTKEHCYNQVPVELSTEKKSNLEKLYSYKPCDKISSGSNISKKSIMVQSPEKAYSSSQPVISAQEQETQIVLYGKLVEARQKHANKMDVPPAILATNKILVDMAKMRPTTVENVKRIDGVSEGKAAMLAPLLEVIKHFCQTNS

Structure (SMILES) | IC50 [1, 4] [µM] | IC50 (WRN C727 [2]) [µM] | IC50 (WRN C727 [3]) [µM] | GI50 (HCT 116 cells) [µM] | GI50 (SW480 cells) [µM] | IC50 [1] [µM]
C[C@@H](/C=C/S(C)(=O)=O)NC(=O)c1cnc(-c2ccccc2)nc1Oc1ccccc1 [Example 80, (S,E)-N-(4-(methylsulfonyl)but-3-en-2-yl)-4-phenoxy-2-phenylpyrimidine-5-carboxamide] | 148 | 20.4 | > 100 |  |  | 
C[C@@H](/C=C/S(C)(=O)=O)NC(=O)c1cnc(C2=CCCC2)cc1Oc1ccccc1 [Example 200, (S,E)-6-(cyclopent-1-en-1-yl)-N-(4-(methylsulfonyl)but-3-en-2-yl)-4-phenoxynicotinamide] | 4.5 |  | 21.7 | 3.6 | > 10 | 
C[C@@H](/C=C/S(C)(=O)=O)NC(=O)c1ccc(C2=CCCC2)nc1Oc1ccccc1 [Example 202, (S,E)-6-(cyclopent-1-en-1-yl)-N-(4-(methylsulfonyl)but-3-en-2-yl)-2-phenoxynicotinamide] | 8.6 |  | 75 | 7.2 | > 10 | 
CC(C)=Cc1ncc(C(=O)N[C@@H](C)/C=C/S(C)(=O)=O)c(Oc2ccccc2)n1 [Example 213, (S,E)-2-(2-methylprop-1-en-1-yl)-N-(4-(methylsulfonyl)but-3-en-2-yl)-4-phenoxypyrimidine-5-carboxamide] | 11 |  | > 100 | 2.16 | 12.7 | 
CC(C)Cc1ncc(C(=O)N[C@@H](C)/C=C/S(C)(=O)=O)c(Oc2ccccc2)n1 [Example 214, (S,E)-2-isobutyl-N-(4-(methylsulfonyl)but-3-en-2-yl)-4-phenoxypyrimidine-5-carboxamide] | 10 |  | > 100 | 2.47 | > 19.5 | 
C[C@@H](/C=C/S(C)(=O)=O)NC(=O)c1cnc(C2(O)CCCC2)nc1Oc1ccccc1 [Example 216, (S,E)-2-(1-hydroxycyclopentyl)-N-(4-(methylsulfonyl)but-3-en-2-yl)-4-phenoxypyrimidine-5-carboxamide] | 7.74 |  | 13.8 | 2.2 | > 10 | 
C[C@@H](/C=C/S(C)(=O)=O)NC(=O)c1cnc(C(C)(C)O)nc1Oc1ccccc1 [Example 218, (S,E)-2-(2-hydroxypropan-2-yl)-N-(4-(methylsulfonyl)but-3-en-2-yl)-4-phenoxypyrimidine-5-carboxamide] | 4.3 |  | 17.1 | 1.38 | > 29.3 | 
COC(C)(C)c1ncc(C(=O)N[C@@H](C)/C=C/S(C)(=O)=O)c(Oc2ccccc2)n1 [Example 221, (S,E)-2-(2-methoxypropan-2-yl)-N-(4-(methylsulfonyl)but-3-en-2-yl)-4-phenoxypyrimidine-5-carboxamide] | 8.3 |  | 20 | 2 | 52 | 
C[C@@H](/C=C/S(C)(=O)=O)NC(=O)c1cnc(C23CC(C2)C3)nc1Oc1ccccc1 [Example 222, (S,E)-2-(bicyclo[1.1.1]pentan-1-yl)-N-(4-(methylsulfonyl)but-3-en-2-yl)-4-phenoxypyrimidine-5-carboxamide] | 0.444 |  | 1.3 | 0.133 | > 15 | 
C[C@@H](/C=C/S(C)(=O)=O)NC(=O)c1cnc(C(F)(F)C2CC2)nc1Oc1ccccc1 [Example 223, (S,E)-2-(cyclopropyldifluoromethyl)-N-(4-(methylsulfonyl)but-3-en-2-yl)-4-phenoxypyrimidine-5-carboxamide] | 0.18 |  | 0.23 | 0.0539 | 19 | 
CCC(F)(F)c1ncc(C(=O)N[C@H](/C=C/S(C)(=O)=O)C2CC2)c(Oc2ccccc2)n1 [Example 230, (S,E)-N-(1-cyclopropyl-3-(methylsulfonyl)allyl)-2-(1,1-difluoropropyl)-4-phenoxypyrimidine-5-carboxamide] | 0.11 |  | 0.81 | 0.0166 | 14 | 
CC(F)(F)c1cc(Oc2ccccc2)c(C(=O)N[C@H](/C=C/S(C)(=O)=O)C2CC2)cn1 [Example 231, (S,E)-N-(1-cyclopropyl-3-(methylsulfonyl)allyl)-6-(1,1-difluoroethyl)-4-phenoxynicotinamide] | 0.21 |  | 0.42 | 0.038 | 61 | 
C[C@@H](/C=C/S(C)(=O)=O)NC(=O)c1ccc(C(C)(F)F)nc1Oc1ccccc1 [Example 232, (S,E)-6-(1,1-difluoroethyl)-N-(4-(methylsulfonyl)but-3-en-2-yl)-2-phenoxynicotinamide] | 0.3 |  | 2.36 | 0.0699 | 28.1 | 
CC(F)(F)c1ccc(C(=O)N[C@H](/C=C/S(C)(=O)=O)C2CC2)c(Oc2ccccc2)n1 [Example 233, (S,E)-N-(1-cyclopropyl-3-(methylsulfonyl)allyl)-6-(1,1-difluoroethyl)-2-phenoxynicotinamide] | 0.072 |  | 0.48 | 0.0199 | 17 | 
CC(F)(F)c1nc(Oc2ccccc2)c(C(=O)N[C@H](/C=C/S(C)(=O)=O)C2CC2)cc1F [Example 235, (S,E)-N-(1-cyclopropyl-3-(methylsulfonyl)allyl)-6-(1,1-difluoroethyl)-5-fluoro-2-phenoxynicotinamide] | 0.0893 |  | 70 | 0.0394 | 8.3 | 
C[C@@H](/C=C/S(C)(=O)=O)NC(=O)c1cc2c(cc1Oc1ccccc1)CCC2=O [Example 247, (S,E)-N-(4-(methylsulfonyl)but-3-en-2-yl)-3-oxo-6-phenoxy-2,3-dihydro-1H-indene-5-carboxamide] |  |  | 30 | 6.5 | > 10 | 8.5
Cn1ccc2cc(C(=O)N[C@H](/C=C/S(C)(=O)=O)C3CC3)c(Oc3ccccc3)nc21 [Example 250, (S,E)-N-(1-cyclopropyl-3-(methylsulfonyl)allyl)-1-methyl-6-phenoxy-1H-pyrrolo[2,3-b]pyridine-5-carboxamide] | 4.5 |  | 0.62 | 1.14 | 44.9 | 
Cn1ncc2cc(C(=O)N[C@H](/C=C/S(C)(=O)=O)C3CC3)c(Oc3ccccc3)nc21 [Example 252, (S,E)-N-(1-cyclopropyl-3-(methylsulfonyl)allyl)-1-methyl-6-phenoxy-1H-pyrazolo[3,4-b]pyridine-5-carboxamide] | 12 |  | 0.35 | 2.1 | > 30 | 
C[C@@H](/C=C/S(C)(=O)=O)NC(=O)c1c(N)nc(C2CCCC2)nc1Oc1ccccc1 [Example 255, (S,E)-4-amino-2-cyclopentyl-N-(4-(methylsulfonyl)but-3-en-2-yl)-6-phenoxypyrimidine-5-carboxamide] | 1.14 |  | 3.77 | 0.329 | > 12.7 | 
C[C@@H](/C=C/S(C)(=O)=O)NC(=O)c1cnc(CC(F)(F)F)nc1Oc1ccccc1 [Example 260, (S,E)-N-(4-(methylsulfonyl)but-3-en-2-yl)-4-phenoxy-2-(2,2,2-trifluoroethyl)pyrimidine-5-carboxamide] | 8.2 |  | > 100 | 1.8 | 41 | 
CS(=O)(=O)/C=C/[C@@H](NC(=O)c1cnc(CC(F)(F)F)nc1Oc1ccccc1)C1CC1 [Example 261, (S,E)-N-(1-cyclopropyl-3-(methylsulfonyl)allyl)-4-phenoxy-2-(2,2,2-trifluoroethyl)pyrimidine-5-carboxamide] | 0.88 |  | 1.79 | 0.35 | 38 | 
C=C(C#N)CNC(=O)c1cnc(C2CCCC2)nc1Oc1ccccc1 [Example 268, N-(2-cyanoallyl)-2-cyclopentyl-4-phenoxypyrimidine-5-carboxamide] | 1.7 |  | 23.3 | 2.1 | 14 | 
C=C(C#N)CNC(=O)c1cnc(C2CC2)nc1Oc1ccccc1 [Example 269, N-(2-cyanoallyl)-2-cyclopropyl-4-phenoxypyrimidine-5-carboxamide] |  |  | 25 | 3.3 | 17.9 | 6.1
C=C(C#N)CNC(=O)c1cnc(C(C)(C)C)nc1Oc1ccccc1 [Example 270, 2-(tert-butyl)-N-(2-cyanoallyl)-4-phenoxypyrimidine-5-carboxamide] | 0.91 |  | 8.53 | 0.51 | 11 | 
C=C(C#N)CNC(=O)c1cnc(C(C)(F)F)nc1Oc1ccccc1 [Example 271, N-(2-cyanoallyl)-2-(1,1-difluoroethyl)-4-phenoxypyrimidine-5-carboxamide] | 0.986 |  | 17.4 | 0.397 | 12 | 
C[C@@H](/C=C/S(C)(=O)=O)NC(=O)c1ccc(C2CCCC2)cc1Oc1ccccc1 [Example 286, (S,E)-4-cyclopentyl-N-(4-(methylsulfonyl)but-3-en-2-yl)-2-phenoxybenzamide] | 1.4 |  | 3.58 | 0.6 | > 10 | 
